Like-named read-outs stand apart in the source and are kept apart here.
Columns and labels:
HL-60 cells = assay: Induction of HL-60 Cell Differentiation (NBT reduction); assay type: cell-based; conditions: 3 days, relative to maximal differentiation with 100-1000 nM calcitriol, mean of 3 wells, 4320 min, read-out: ED50, concentration leading to 50% of maximal differentiation
Description: Induction of HL-60 Cell Differentiation
The induction of differentiation of HL-60 cells was assayed by measuring their oxidative burst potential via the reduction of nitrobluetetrazolium (NBT).
HL-60 cells (30,000 cells in 90 μl of supplemented RPMI medium) were seeded into flat-bottomed microliter wells. Immediately after seeding, 10 μl of test compounds listed below in Table II diluted in supplemented RPMI medium were added to the wells to yield final concentrations of between 10^-11 and 10^-6 M (starting from stock solutions of 10^-2 M in ethanol, stored at -20° C. and protected from light). After 3 days, medium was removed from the wells with a multichannel pipette and replaced with 100 μl of NBT solution (1 mg/ml in phosphate buffered saline with 200 nM phorbol myristate acetate). Following an additional hour incubation at 37° C. the NBT solution was removed and 100 μl of 10% sodium dodecyl sulfate in 0.01N HCl was added. The amount of the reduced NBT was quantified photometrically at 540 nm using an automated plate reader. The mean of 3 wells was calculated. […] Values were expressed as percent of maximal differentiation achieved with 100-1000 nM calcitriol in the same experiment.

Sebaceous cells = assay: Inhibition of Sebaceous Cell Proliferation; assay type: cell-based, human; conditions: read-out: ED50, amount of compound necessary to inhibit the proliferation of the sebaceous cells by 50%
Description: Inhibition of Sebaceous Cell Proliferation
Sebaceous cells were isolated from adult human sebaceous glands, derived from facial skin removed during cosmetic surgery. This method is described in an article by Doran et al. in J. Invest. Dermatol. 96:341-348 (1991).
The cells were cultured in Iscove's medium containing 10% fetal calf-serum and 4 μg/ml dexamethasone on a layer of growth-arrested 3T3 mouse fibroblasts.
Cells were plated in medium without the test compound and then given the compound in fresh medium 24-48 hours after the initial plating. The cultures were given fresh medium, containing the test compound, every 48 hours. On the day of harvesting, the cultures were rinsed with 0.03% ethylenediamine tetraacetic acid (EDTA) in phosphate buffered saline (PBS), to remove only the 3T3 fibroblasts. The remaining sebocyte colonies were incubated in 0.05% trypsin/0/03% EDTA to create a single cell suspension of sebocytes. The cells were suspended, mixed vigorously to prepare a single cell suspension, and counted in a hemocytometer.
All compounds were handled in the following manner. Stock solutions were made up as 10-^2 M solutions in degassed 100% ethanol and stored at -20° C. in the dark. Solutions were never used after storage of more than a month. During experimental use the solutions, which had been aliquoted, were thawed once and used by diluting directly into complete medium to the appropriate concentration.
The results are summarized in Table III below as the amount of compound necessary to inhibit the proliferation of the sebaceous cells by 50% (ED50) in μM as compared to a control, vehicle treated only, culture.

[1] = test system: γ-Interferon Release in Human T-cells; assay: Inhibition of γ-Interferon Release in Human T-cells (ELISA); assay type: cell-based; conditions: PHA-stimulated human lymphocytes, IFN-γ by ELISA, days 3 and 4, read-out: IC50, concentration leading to 50% of control values (IFN-γ)
Description: Inhibition of γ-Interferon Release in Human T-cells
(§1) Mononuclear cells were isolated from venous blood of healthy donors by centrifugation of buffy coat leucocytes atop Ficoll-Paque. […] 100 μl of this cell suspension were seeded into flat-bottom microtiter wells and stimulated with 1 μg/ml of the T-cell specific mitogen phytohemagglutinine (PHA). Immediately after seeding, the test compounds listed below in Table IV were added to yield final concentrations of between 1×10^-11 M-1×10^-6 M. All tests were run in the quadruplicates.
On days 3 and 4, medium was removed from the wells and the content of IFN-γ was analyzed by ELISA. Values are expressed as percent of controls (samples without test compound).

Human T-cell = assay: Inhibition of Human T-cell Proliferation (3H-thymidine); assay type: cell-based; conditions: PHA-stimulated human lymphocytes, 3H-thimidine after 3 and 4 days, read-out: IC50, concentration leading to 50% of control values (T-cell proliferation)
Description: Inhibition of Human T-cell Proliferation
as §1, with “[…]” for “μl”, “[…]” for “μg/ml”, “PHA.” for “the T-cell specific mitogen phytohemagglutinine (PHA).”, “V” for “IV”
After 3 and 4 days, ^3 H-thymidine (5 Ci/mmol) was added to wells at a concentration of […]. Cells were pulse-labeled for the last 6 hours of the growth period. Cells were then harvested on to a 96 well filter plate using a cell harvester. After drying at 40° C. under vacuum for 20-30 minutes, 20 μl of scintillor were added and the radioactivity bound to the filters was counted. Values are expressed as percent controls (samples without test compounds).

[2] = Calcium tolerance test in mice; assay type: in vivo; conditions: daily subcutaneous, 4 consecutive days, dose giving zero weight gain during 5 day treatment period
Source text: Calcium tolerance test in mice
Profound changes in calcium homeostasis strongly affect the weight development of mice.
Mice (25-30 g body weight) received daily subcutaneous administrations of the compound for 4 consecutive days. Body weight was registered just before and at the end of a […] treatment period. The "highest tolerated dose" (HTD) is the dose which results in zero weight gain during this treatment period.

HaCaT cell line = assay: Inhibition of Keratinocyte Proliferation (3H-thymidine uptake, HaCaT cells); assay type: cell-based; conditions: Homo sapiens, 3H-thymidine incorporation, 6 days, read-out: IC50, concentration leading to 50% of control values

Row | SMILES | EC50 (HL-60 cells) | IC50 (Sebaceous cells; adult human facial sebaceous cells, vs vehicle treated control, listed as 1α,25-Dihydroxy-16,22R,23-triene-cholecalciferol) | IC50 [1] | IC50 (Human T-cell) | HTD, highest tolerated dose [2] | IC50 (HaCaT cell line) | IC50 (Sebaceous cells; adult human facial sebaceous cells, vs vehicle treated control, listed as 1α,25-Dihydroxy-16,22S,23-triene-cholecalciferol) | IC50 (Sebaceous cells; Homo sapiens) | IC50 ([1]; T-cell) | IC50 (Human T-cell; T-cell)
1 | C=C1/C(=C\C=C2/CCC[C@]3(C)C([C@H](C)C=C=CC(C)(C)O)=CC[C@@H]23)C[C@@H](O)C[C@@H]1O [1,25-Dihydroxy-16,22R,23-triene-cholecalciferol] | 0.22 nM | 1 nM | 0.05 nM | 0.55 nM | 0.0025 mg/kg | – | – | – | – | –
2 | C=C1/C(=C\C=C2/CCC[C@]3(C)C([C@H](C)C=C=CC(C)(C)O)=CC[C@@H]23)C[C@@H](O)C[C@@H]1O [1,25-Dihydroxy-16,22S,23-triene-cholecalciferol] [listing 1 of 2 here] | – | – | – | – | – | 40 nM | – | – | – | –
3 | C=C1/C(=C\C=C2/CCC[C@]3(C)C([C@H](C)C=C=CC(C)(C)O)=CC[C@@H]23)C[C@@H](O)C[C@@H]1O [1,25-Dihydroxy-16,22S,23-triene-cholecalciferol] [listing 2 of 2 here] | 4.8 nM | – | 3 nM | 6 nM | 0.05 mg/kg | – | 10 nM | – | – | –
4 | C=C1/C(=C\C=C2/CCC[C@]3(C)[C@@H]([C@H](C)CCCC(C)(C)O)CC[C@@H]23)C[C@@H](O)C[C@@H]1O [1,25-Dihydroxy-cholecalciferol, reference compound] | – | – | – | – | – | 55 nM | – | 50 nM | 0.8 nM | 10 nM

Reference: patent publication US5840718A, “22-epimeric-1,25-dihydroxy-16,22,23-triene-cholecalciferol” (Hoffmann-La Roche Inc., priority 1997, dated 1998)
